Results reported in patent publication US20220187282A1, “CARDIOMYOCYTE PROLIFERATION” (The Council of the Queensland Institute of Medical Research, priority 2019, published 2022).
“Also recorded” adds a separate entry of the source. Where two headings read alike, the source gives them in different places.

Experiments:
Format in all cases: biochemical
[1] = target: kinases (Homo sapiens, UniProt P45984)
[2] = target: kinases (Homo sapiens, UniProt Q56UN5); conditions: MAP3K19 (YSK4) FRET-Z-Lyte SP; Test Conc(μM):ATP Conc(μM) 1:5
[3] = target: kinases (Homo sapiens, UniProt Q12851); conditions: MAP4K2 (GCK) FRET-Z-Lyte SP; Test Conc(μM):ATP Conc(μM) 1:100
[4] = target: kinases (Homo sapiens, UniProt Q14289); conditions: PTK2B (FAK2) *Mn* Z-Lyte SP; Test Conc(μM):ATP Conc(μM) 1:5
[5] = target: kinases (Homo sapiens, UniProt P23458); conditions: JAK1 FRET-Z-Lyte SP; Test Conc(μM):ATP Conc(μM) 1:75
[6] = target: kinases (Homo sapiens, UniProt Q13153); conditions: PAK1 FRET-Z-Lyte SP; Test Conc(μM):ATP Conc(μM) 1:50
[7] = target: kinases (Homo sapiens, UniProt Q8IW41); conditions: MAPKAPK5 (PRAK) FRET-Z-Lyte SP; Test Conc(μM):ATP Conc(μM) 1:10
[8] = target: kinases (Homo sapiens, UniProt Q13554); conditions: CAMK2B FRET-Z-Lyte SP; Test Conc(μM):ATP Conc(μM) 1:75
[9] = target: kinases (Homo sapiens, UniProt Q6PHR2); conditions: ULK3 FRET-Lantha SP; Test Conc(μM) 1
[10] = target: kinases (Homo sapiens, UniProt Q13873); conditions: BMPR2 FRET-Lantha SP; Test Conc(μM) 1
[11] = target: kinases (Homo sapiens, UniProt Q9H1R3); conditions: MYLK2 FRET-Z-lyte SP
[12] = target: kinases (Homo sapiens, UniProt Q9UIK4); conditions: DAPK2 FRET-Lantha SP; Test Conc(μM) 1
[13] = target: kinases (Homo sapiens, UniProt Q00534); conditions: CDK6 Cyclin D1 FRET-Adapta SP; Test Conc(μM):ATP Conc(μM) 1:10
[14] = target: kinases (Homo sapiens, UniProt P51957); conditions: NEK4 FRET-Z-Lyte SP; Test Conc(μM):ATP Conc(μM) 1:50
[15] = target: kinases (Homo sapiens, UniProt P42336)
[16] = target: kinases (Homo sapiens, UniProt Q8IY84); conditions: NIM1K FRET-Z-Lyte SP; Test Conc(μM):ATP Conc(μM) 1:10
[17] = target: kinases (Homo sapiens, UniProt O75914); conditions: PAK3 FRET-Z-Lyte SP; Test Conc(μM):ATP Conc(μM) 1:100
[18] = target: kinases (Homo sapiens, UniProt P41240); conditions: CSK FRET-Z-Lyte SP; Test Conc(μM):ATP Conc(μM) 1:10
[19] = target: kinases (Homo sapiens, UniProt Q9UF33); conditions: EPHA6 FRET-Lantha SP; Test Conc(μM) 1
[20] = target: kinases (Homo sapiens, UniProt P45983)
[21] = target: kinases (Homo sapiens, UniProt Q9P0L2); conditions: MARK1 (MARK) FRET-Z-Lyte SP; Test Conc(μM):ATP Conc(μM) 1:5
[22] = target: kinases
[23] = target: kinases (Homo sapiens, UniProt P04626); conditions: ERBB2 (HER2) *Mn* Z-Lyte SP; Test Conc(μM):ATP Conc(μM) 1:10
[24] = target: kinases (Homo sapiens, UniProt Q52WX2); conditions: SBK1 FRET-Z-Lyte SP; Test Conc(μM):ATP Conc(μM) 1:5
[25] = target: kinases (Homo sapiens, UniProt Q96L34); conditions: MARK4 FRET-Z-Lyte SP; Test Conc(μM):ATP Conc(μM) 1:10
[26] = target: kinases (Homo sapiens, UniProt Q9NRA0); conditions: SPHK2 FRET-Adapta SP; Test Conc(μM):ATP Conc(μM) 1:10
[27] = target: kinases (Homo sapiens, UniProt Q9Y5S2); conditions: CDC42 BPB (MRCKB) Z-Lyte SP; Test Conc(μM):ATP Conc(μM) 1:5
[28] = target: kinases (Homo sapiens, UniProt P78362); conditions: SRPK2 FRET-Z-Lyte SP; Test Conc(μM):ATP Conc(μM) 1:25
[29] = MAPK9 (JNK2) Cascade Z-Lyte SP, Test Conc(μM):ATP Conc(μM) 1:100
[30] = MAPK9 (JNK2) FRET-Lantha SP, Test Conc(μM) 1
[31] = PIK3CA/PIK3R1 FRET-Adapta SP, Test Conc(μM):ATP Conc(μM) 1:25
[32] = PIK3CA/PIK3R3 FRET-Adapta SP, Test Conc(μM):ATP Conc(μM) 1:10
[33] = MAPK8 (JNK1) Cascade Z-Lyte SP, Test Conc(μM):ATP Conc(μM) 1:100
[34] = MAPK8 (JNK1) FRET-Lantha SP, Test Conc(μM) 1
[35] = LYN B FRET-Z-Lyte SP, Test Conc(μM):ATP Conc(μM) 1:25
[36] = PRKCB2 (PKC Beta II) Z-Lyte SP, Test Conc(μM):ATP Conc(μM) 1:200

kinases (Homo sapiens, UniProt P45983), sequence (P45983 whole entry): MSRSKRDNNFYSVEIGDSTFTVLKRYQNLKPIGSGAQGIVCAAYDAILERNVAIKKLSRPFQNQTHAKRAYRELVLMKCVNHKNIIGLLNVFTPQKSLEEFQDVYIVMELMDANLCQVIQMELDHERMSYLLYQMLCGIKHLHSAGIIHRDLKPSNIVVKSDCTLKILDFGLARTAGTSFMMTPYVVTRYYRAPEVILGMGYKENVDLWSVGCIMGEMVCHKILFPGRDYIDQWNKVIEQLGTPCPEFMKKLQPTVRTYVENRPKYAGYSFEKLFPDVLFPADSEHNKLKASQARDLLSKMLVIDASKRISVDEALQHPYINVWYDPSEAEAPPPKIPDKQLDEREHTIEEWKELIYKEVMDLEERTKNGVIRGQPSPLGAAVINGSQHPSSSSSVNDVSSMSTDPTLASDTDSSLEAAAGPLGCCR
kinases (Homo sapiens, UniProt P45984), sequence (P45984 whole entry): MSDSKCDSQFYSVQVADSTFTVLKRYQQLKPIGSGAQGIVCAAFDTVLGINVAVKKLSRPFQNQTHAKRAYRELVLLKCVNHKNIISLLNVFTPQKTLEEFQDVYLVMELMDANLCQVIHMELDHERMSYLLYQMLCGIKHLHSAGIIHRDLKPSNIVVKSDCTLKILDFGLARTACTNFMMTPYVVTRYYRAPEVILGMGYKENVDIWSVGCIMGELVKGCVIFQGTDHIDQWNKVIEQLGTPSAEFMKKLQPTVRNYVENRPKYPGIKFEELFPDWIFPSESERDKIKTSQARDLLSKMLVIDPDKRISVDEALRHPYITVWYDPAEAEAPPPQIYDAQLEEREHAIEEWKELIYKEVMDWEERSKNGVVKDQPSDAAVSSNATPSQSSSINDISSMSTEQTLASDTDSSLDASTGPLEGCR
kinases (Homo sapiens, UniProt P42336), sequence (P42336 whole entry): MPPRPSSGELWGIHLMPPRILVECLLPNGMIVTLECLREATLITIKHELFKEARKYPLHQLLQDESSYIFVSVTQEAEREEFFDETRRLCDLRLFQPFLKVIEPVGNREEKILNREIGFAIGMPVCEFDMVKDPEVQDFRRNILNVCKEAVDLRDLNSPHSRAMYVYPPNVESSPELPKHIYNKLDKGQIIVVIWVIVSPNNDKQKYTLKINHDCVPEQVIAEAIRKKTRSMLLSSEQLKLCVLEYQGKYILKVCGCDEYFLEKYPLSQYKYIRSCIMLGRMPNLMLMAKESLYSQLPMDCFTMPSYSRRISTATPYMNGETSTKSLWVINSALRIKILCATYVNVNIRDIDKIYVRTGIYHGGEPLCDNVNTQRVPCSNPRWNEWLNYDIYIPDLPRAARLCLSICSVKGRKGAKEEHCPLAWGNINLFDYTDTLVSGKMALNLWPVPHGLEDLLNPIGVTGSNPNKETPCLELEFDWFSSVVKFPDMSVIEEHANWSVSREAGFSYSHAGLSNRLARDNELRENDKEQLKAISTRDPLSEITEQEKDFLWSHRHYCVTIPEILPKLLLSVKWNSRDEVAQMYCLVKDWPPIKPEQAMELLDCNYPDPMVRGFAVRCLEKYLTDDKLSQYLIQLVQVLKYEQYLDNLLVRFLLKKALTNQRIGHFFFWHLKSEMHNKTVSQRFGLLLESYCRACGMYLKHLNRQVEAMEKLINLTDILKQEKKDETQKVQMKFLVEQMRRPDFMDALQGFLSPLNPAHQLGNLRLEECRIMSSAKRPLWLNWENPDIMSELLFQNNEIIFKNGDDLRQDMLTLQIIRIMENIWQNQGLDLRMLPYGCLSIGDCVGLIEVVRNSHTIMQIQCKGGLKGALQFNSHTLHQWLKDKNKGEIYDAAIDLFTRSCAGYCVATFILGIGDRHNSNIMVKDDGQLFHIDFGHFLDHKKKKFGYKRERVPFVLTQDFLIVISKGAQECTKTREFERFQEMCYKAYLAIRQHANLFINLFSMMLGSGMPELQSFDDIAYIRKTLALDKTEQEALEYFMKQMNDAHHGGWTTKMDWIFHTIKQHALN
kinases (Homo sapiens, UniProt P23458), sequence (P23458 whole entry): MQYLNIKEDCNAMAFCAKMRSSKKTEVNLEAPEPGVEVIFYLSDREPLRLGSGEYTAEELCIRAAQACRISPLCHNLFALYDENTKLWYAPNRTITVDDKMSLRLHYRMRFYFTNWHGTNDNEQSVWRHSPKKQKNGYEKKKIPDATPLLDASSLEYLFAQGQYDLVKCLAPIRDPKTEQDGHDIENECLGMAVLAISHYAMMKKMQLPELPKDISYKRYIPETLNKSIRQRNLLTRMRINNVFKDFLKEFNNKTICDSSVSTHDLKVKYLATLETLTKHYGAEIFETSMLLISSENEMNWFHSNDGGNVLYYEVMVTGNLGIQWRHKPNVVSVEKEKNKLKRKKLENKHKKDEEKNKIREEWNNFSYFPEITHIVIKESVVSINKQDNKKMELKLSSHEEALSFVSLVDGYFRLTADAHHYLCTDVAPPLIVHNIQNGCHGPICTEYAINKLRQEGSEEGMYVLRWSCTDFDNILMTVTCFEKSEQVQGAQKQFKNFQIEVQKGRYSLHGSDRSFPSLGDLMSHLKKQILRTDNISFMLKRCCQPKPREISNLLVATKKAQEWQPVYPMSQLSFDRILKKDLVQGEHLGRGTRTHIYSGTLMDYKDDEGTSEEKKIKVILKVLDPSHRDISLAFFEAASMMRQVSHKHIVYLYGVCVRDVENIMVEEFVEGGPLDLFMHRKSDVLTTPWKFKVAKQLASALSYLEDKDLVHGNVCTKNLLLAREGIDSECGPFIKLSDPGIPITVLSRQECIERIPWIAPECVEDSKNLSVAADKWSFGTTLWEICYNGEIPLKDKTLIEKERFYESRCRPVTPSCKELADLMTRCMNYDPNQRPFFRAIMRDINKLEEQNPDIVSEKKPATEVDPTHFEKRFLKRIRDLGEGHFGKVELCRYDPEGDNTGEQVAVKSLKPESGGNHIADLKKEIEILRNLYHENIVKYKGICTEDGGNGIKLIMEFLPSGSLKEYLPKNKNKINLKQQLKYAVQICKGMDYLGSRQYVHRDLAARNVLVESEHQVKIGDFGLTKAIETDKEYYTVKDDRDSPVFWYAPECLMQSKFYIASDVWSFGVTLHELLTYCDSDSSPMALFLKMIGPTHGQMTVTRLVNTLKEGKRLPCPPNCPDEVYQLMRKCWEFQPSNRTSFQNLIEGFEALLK
kinases (Homo sapiens, UniProt Q9UIK4), sequence (Q9UIK4 whole entry): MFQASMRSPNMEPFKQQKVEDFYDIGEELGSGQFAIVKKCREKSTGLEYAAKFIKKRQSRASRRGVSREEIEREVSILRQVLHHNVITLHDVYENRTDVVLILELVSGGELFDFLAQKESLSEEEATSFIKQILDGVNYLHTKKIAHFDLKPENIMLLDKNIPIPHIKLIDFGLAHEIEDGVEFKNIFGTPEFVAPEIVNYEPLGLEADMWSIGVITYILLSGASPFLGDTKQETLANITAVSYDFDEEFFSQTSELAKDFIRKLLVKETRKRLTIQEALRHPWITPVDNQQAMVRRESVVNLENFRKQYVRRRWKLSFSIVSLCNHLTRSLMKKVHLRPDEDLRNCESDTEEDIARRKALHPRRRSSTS
kinases (Homo sapiens, UniProt O75914), sequence (O75914 whole entry): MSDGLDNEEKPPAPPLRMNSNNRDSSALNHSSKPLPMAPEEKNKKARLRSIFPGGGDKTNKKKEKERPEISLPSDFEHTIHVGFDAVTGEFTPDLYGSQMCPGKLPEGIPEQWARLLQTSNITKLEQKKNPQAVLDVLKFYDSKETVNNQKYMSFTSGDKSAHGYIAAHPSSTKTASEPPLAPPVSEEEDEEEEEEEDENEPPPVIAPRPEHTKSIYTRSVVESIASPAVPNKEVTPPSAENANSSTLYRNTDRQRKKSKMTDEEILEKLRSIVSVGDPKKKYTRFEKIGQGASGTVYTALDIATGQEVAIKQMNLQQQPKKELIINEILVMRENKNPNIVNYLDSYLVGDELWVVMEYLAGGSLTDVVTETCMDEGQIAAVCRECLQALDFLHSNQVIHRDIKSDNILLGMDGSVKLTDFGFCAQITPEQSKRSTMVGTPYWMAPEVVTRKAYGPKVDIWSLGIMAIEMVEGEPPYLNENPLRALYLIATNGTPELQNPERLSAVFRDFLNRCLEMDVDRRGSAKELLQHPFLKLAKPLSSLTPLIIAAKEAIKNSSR
kinases (Homo sapiens, UniProt Q8IW41), sequence (Q8IW41 whole entry): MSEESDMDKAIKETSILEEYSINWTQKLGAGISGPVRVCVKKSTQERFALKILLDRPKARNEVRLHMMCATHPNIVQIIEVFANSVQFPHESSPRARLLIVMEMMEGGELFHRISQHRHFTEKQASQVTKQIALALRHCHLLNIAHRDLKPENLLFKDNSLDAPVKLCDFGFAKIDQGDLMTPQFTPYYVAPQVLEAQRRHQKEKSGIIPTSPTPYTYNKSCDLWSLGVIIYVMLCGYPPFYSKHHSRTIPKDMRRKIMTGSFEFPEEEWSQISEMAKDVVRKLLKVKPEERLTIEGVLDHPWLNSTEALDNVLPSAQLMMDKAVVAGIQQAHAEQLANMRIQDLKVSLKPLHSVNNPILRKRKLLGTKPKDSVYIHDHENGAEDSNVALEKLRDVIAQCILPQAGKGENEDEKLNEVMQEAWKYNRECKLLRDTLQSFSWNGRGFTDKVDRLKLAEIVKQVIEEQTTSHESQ
kinases (Homo sapiens, UniProt Q00534), sequence (Q00534 whole entry): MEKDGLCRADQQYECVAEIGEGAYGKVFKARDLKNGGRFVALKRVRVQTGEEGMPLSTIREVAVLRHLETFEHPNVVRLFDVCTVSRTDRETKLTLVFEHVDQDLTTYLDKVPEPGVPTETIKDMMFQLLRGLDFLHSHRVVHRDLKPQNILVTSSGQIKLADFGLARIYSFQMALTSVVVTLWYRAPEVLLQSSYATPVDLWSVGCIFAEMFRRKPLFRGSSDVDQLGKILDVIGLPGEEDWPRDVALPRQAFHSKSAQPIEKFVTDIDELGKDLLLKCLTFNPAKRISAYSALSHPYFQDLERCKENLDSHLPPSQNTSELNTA

SMILES | Mean Inhib (%) [1, 29] | Mean Inhib (%) [1, 30] | Mean Inhib (%) [2] | Mean Inhib (%) [3] | Mean Inhib (%) [4] | Mean Inhib (%) [5] | Mean Inhib (%) [6] | Mean Inhib (%) [7] | Mean Inhib (%) [8] | Mean Inhib (%) [9] | Mean Inhib (%) [10] | Mean Inhib (%) [12] | Mean Inhib (%) [13] | Mean Inhib (%) [14] | Mean Inhib (%) [15, 31] | Mean Inhib (%) [15, 32] | Mean Inhib (%) [16] | Mean Inhib (%) [17] | Mean Inhib (%) [18] | Mean Inhib (%) [19] | also measured
Cc1ccc(NC(=O)c2ccnc(N3CCOCC3)c2)cc1Nc1ccnc(N2CC(C)OC(C)C2)n1 (centres unmarked) [compound 3] | 17.9% | 5.3% | −1.6% | 13.1% | 8.5% | −1.9% | −1.9% | −1.3% | 4.5% | −2.1% | −4.1% | −2.5% | −1.8% | 14.2% | 8.4% | −3.0% | −0.9% | −0.3% | 10.1% | 1.9% | Mean Inhib (%) ([11]; Test Conc(μM):ATP Conc(μM) 1:300): 7.4%; Mean Inhib (%) [20, 33]: 6.5%; Mean Inhib (%) [20, 34]: −6.1%; Mean Inhib (%) [21]: 16.9%; kinase specificity (kinase inhibition profile) [22]: strong specificity in targeting p38α; also recorded: very specific for p38α/β; Mean Inhib (%) [22, 35]: 16.3%; Mean Inhib (%) [22, 36]: −11.1%; Mean Inhib (%) [23]: 2.7%; Mean Inhib (%) [24]: 3.3%; Mean Inhib (%) [25]: 0.2%; Mean Inhib (%) [26]: −9.4%; Mean Inhib (%) [27]: −7.0%; Mean Inhib (%) [28]: −1.9%
Cc1cc(Oc2ccnc(Nc3ccc(S(N)(=O)=O)cc3)c2)c(-c2ccccn2)nc1C [compound 65] | 12.1% | 5.2% | −3.1% | 18.4% | −2.5% | 4.3% | 14.1% | 1.9% | 11.4% | −2.4% | 2.7% | −0.8% | 6.7% | 3.6% | 0.0% | 3.9% | −0.4% | 23.3% | 6.4% | 54.2% | Mean Inhib (%) ([11]; Test Conc(μM):ATP Conc(μM) 0.25): −7.8%; Mean Inhib (%) [20, 33]: 16.9%; Mean Inhib (%) [20, 34]: 7.0%; Mean Inhib (%) [21]: 5.7%; Mean Inhib (%) [22, 35]: 42.0%; Mean Inhib (%) [22, 36]: −1.0%; Mean Inhib (%) [23]: 10.1%; Mean Inhib (%) [24]: −6.2%; Mean Inhib (%) [25]: 1.4%; Mean Inhib (%) [26]: −1.2%; Mean Inhib (%) [27]: −5.0%; Mean Inhib (%) [28]: 1.9%
